Measurements as given in patent US20190209618A1, “METHODS AND COMPOSITIONS FOR EXPANSION OF HEMATOPOIETIC STEM AND/OR PROGENITOR CELLS EMPLOYING A CYTOCHROME P450 1B1 (CYP1B1) INHIBITOR OR A MUSASHI-2 (MSI2) ACTIVATOR” (McMaster University, priority 2016, published 2019).
Like-named read-outs stand apart in the source and are kept apart here.

Experiments:
Lin− CD34+CB HSPCs = assay: High throughput screen of CYP family inhibitors for in vitro HSPC expansion
Experimental: FIG. 16: Primary screen for inhibitors of Cytochrome […] oxidases and promotion of in vitro HSPC expansion by primitive marker expression. 1000 flow sorted Lin− CD34+CB HSPCs were plated per well of a 96-well plate and test compounds were added at three doses (0.1 uM, 1.0 uM, 10 uM) in triplicate. Cell cultures were refreshed with medium every 3 days and at day 10 cells were counted and assessed for CD34 marker expression. […] Columns marked by “x” have a >2-fold increase compared to DMSO. Columns marked by “o” show at least a 1.5-fold increase compared to DMSO control. […] Data shown as mean+/−SEM from n=3 cultures.
FIG. 17: Primary screen for inhibitors of Cytochrome […] oxidases and promotion of in vitro HSPC expansion by total number CD34 marked cells. 1000 flow sorted Lin− CD34+CB HSPCs were plated per well of a 96-well plate and test compounds were added at three doses (0.1 uM, 1.0 uM, 10 uM) in triplicate. Cell cultures were refreshed with medium every 3 days and at day 10 cells were counted and assessed for CD34 marker expression. […] Columns marked by “x” have a >2-fold increase compared to DMSO. Columns marked by “o” show at least a 1.5-fold increase compared to DMSO control. […] Data shown as mean+/−SEM from n=3 cultures.
A screening approach was undertaken that tested the function of 3 alkaloid, 9 coumarin, and 17 flavonoid based compounds ([…], Table 1). The screening approach used 96-well plates seeded with 1000 FACS-purified CD34+ cells and treatment with 3 concentrations of each compound performed in triplicate culture wells (9 wells total per compound). Cells were cultured for 10 days and resultant growth was measured for cell number and surface marker expression by automated flow cytometer (MACS Quant).

CYP enzymes = conditions: cited from earlier work
Lin− CD34+ cells [1] = assay: MSI2 OE and control suspension cultures with AHR antagonist SR1; format: cell-based, human; conditions: SR1 750 nM vs DMSO, 10 days
Experimental: GFP^+ cells were isolated (20,000 cells per culture) and allowed to proliferate with or without SR1 for an additional 7 days at which point they were counted and immunophenotyped for CD34 and CD133 expression. […] GFP^+ cells were isolated (20,000 cells per culture) and allowed to proliferate with FICZ (200 nM; Santa Cruz Biotechnology) or DMSO (0.1%) for an additional 3 days at which point they were immunophenotyped for CD34 and CD133 expression.

AHR = AHR ChIP-seq comparison to downregulated gene sets; set-up: species or system human; conditions: ChIP-seq-identified AHR targets; SR1 500 nM, UM171 35 nM gene sets
Text: Percentage of down regulated genes with AHR bound regions was then graphed for each gene set. P-values were generated with Fisher's exact test between gene lists.

Lin− CD34+ cells [2] = assay: HSPC expansion with TMS; format: cell-based, human; conditions: TMS 10 μM vs 0.1% DMSO, during culture
Experimental: Lin^− CD34^+ cells were cultured for 72 hours (lentiviral treated but non-transduced flow-sorted GFP^− cells) in StemSpan medium containing growth factors IL-6 (20 ng/ml), SCF (100 ng/ml), FLT3-L (100 ng/ml) and TPO (20 ng/ml) before the addition of the CYP1B1 inhibitor TMS (Abcam) at a concentration of 10 μM or mock treatment with 0.1% DMSO. Equal numbers of cells (12,000 per condition) were then allowed to proliferate for 7 days at which point they were counted and immunophenotyped for CD34 and CD133 expression.

[3] = summary statement referring to the Examples

## COc1ccc(-c2cc(=O)c3c(O)cc(O)cc3o2)cc1 [Acacetin, 5,7-dihydroxy-2-(4-methoxyphenyl)-4H-1-benzopyran-4-one]
Lin− CD34+CB HSPCs; [3]
  self-renewal and expansion of hematopoietic stem and progenitor cell cultures: promote the self-renewal and expansion

## O=c1cc(-c2ccccc2)oc2cc(O)cc(O)c12 [Chrysin, 5,7-Dihydroxy-2-phenyl-4H-chromen-4-one]
Lin− CD34+CB HSPCs
  self-renewal and expansion of hematopoietic stem and progenitor cell cultures: promote the self-renewal and expansion

## O=c1c(-c2ccc(O)cc2)coc2cc(O)ccc12 [Daidzein, 7-Hydroxy-3-(4-hydroxyphenyl) chromen-4-one]
CYP enzymes
  IC50: 7.9 µM

## O=C1CC(c2ccc(O)cc2)Oc2cc(O)cc(O)c21 (centres unmarked) [Naringenin, 5,7-Dihydroxy-2-(4-hydroxyphenyl)chroman-4-one]
Lin− CD34+CB HSPCs; [3]
  self-renewal and expansion of hematopoietic stem and progenitor cell cultures: promote the self-renewal and expansion

## CC(C)n1cnc2c(NCCc3ccc(O)cc3)nc(-c3csc4ccccc34)nc21 [SR1, StemRegenin 1]
Lin− CD34+ cells [1]; MSI2 OE cultures
  increase in percentage of CD34+ cells: 4 fold
Lin− CD34+ cells [1]; control transduced cultures
  increase in percentage of CD34+ cells: 8 fold
AHR
  enrichment of direct transcriptional targets of AHR in downregulated gene set compared to UM171: 5.6 fold

## COc1cc(/C=C/c2ccc(OC)cc2OC)cc(OC)c1 [TMS, (E)-2,3′,4,5′-Tetramethoxystilbene]
Lin− CD34+ cells [2]
  increase in frequency of CD34+ cells: 1.5 fold
  increase in total numbers of CD34+ cells: 2 fold
Lin− CD34+CB HSPCs; 1000 CD34+ cells per well, 0.1, 1.0, 10 uM, 10 days
  % CD34+ at day 10 relative to DMSO: > 2 fold
Lin− CD34+CB HSPCs; [3]
  self-renewal and expansion of hematopoietic stem and progenitor cell cultures: promote the self-renewal and expansion
